In patent publication US6335323B1, “Compositions for the treatment of peripheral neuropathies containing antidepressants and/or monoamine oxidase inhibitors and/or vitamin B12 and/or precursors or inducers of a neurotransmitter” (The WWK Trust, priority 1996, dated 2002):

How the values were obtained:
[1] = tested on: neuropathy related to HIV; assay: Clinical case report, HIV related peripheral neuropathy (Case #9); type: in vivo, human; conditions: result in words
Method: A person was HIV positive and complained of moderate peripheral neuropathy including painful neuropathy. They also had mild diabetes of short duration but clinically their neuropathy was diagnosed as that related to HIV. […] They were additionally commenced on L-phenylalanine 500 mg twice daily, whereafter they reported an approximate further 50% improvement in the symptoms of their painful neuropathy.

diabetic neuropathy [2] = conditions: cited from earlier work; for effectiveness against diabetic neuropathy symptoms: prior art statement
diabetic neuropathy [3] = assay: Clinical case reports of patients with diabetic neuropathy; type: in vivo, human; conditions: single patient case reports; result in words
Description: The onset of neuropathy was thought to be due to poor control of diabetes. Neuropathic symptoms increased in severity over several years with development of severe diabetic neuropathy including diabetic amyotrophy, painful neuropathy with spasm, diabetic autonomic neuropathy and decreased sensation in the extremities, with numbing and loss of vibration sense. Electromyography confirmed the diagnosis of diabetic neuropathy.
A person with non-insulin dependent diabetes with very severe diabetic neuropathy, including diabetic amyotrophy and bedbound, resistant to current therapies, was commenced on vitamin B12 injections (1 mg at two-week intervals) and L-phenylalanine (as a metabolite of aspartame) 500 mg twice a day.
This case studied here is of the same person with diabetic neuropathy as in case #1, but after the original observation in case #1. The patient was subsequently continued on the same vitamin B12 injections and phenylalanine (500 mg twice daily) only.
A person with non-insulin dependent diabetes for 15 years with reasonable control, developed peripheral painful diabetic neuropathy of two months duration. […]
A person had severe diabetic peripheral neuropathy and resultant Charcot foot joints. […] Vibration sense initially could not be detected at a level below the knee.

[4] = tested on: vitamin B12 neuropathy and mild alcoholic neuropathy; assay: Clinical case report, vitamin B12 neuropathy and mild alcoholic neuropathy (Case #4); type: in vivo, human; conditions: result in words
Description: A person with vitamin B12 neuropathy and mild alcoholic neuropathy was studied. Clinical progress with vitamin B12 injections alone was insignificant. […] Previously they required the assistance of another person to walk.

Compound	effectiveness against diabetic neuropathy symptoms (diabetic neuropathy [2])	clinical response of diabetic neuropathy signs and symptoms (diabetic neuropathy [3])	other results
CN(C)CCC=C1c2ccccc2CCc2ccccc21 [amitriptyline]			clinical effect on neuropathy [1]: some mild beneficial effects
NC(=O)N1c2ccccc2C=Cc2ccccc21 [carbemazepine]	only to be mildly effective	ineffective	
CN(C)CC/C=C1\c2ccccc2CSc2ccccc21 [dothiepin]		mild beneficial effect	
CCCCC/C=C\C/C=C\C/C=C\CCCCC(=O)O [gamolenic acid]	may reduce symptoms		progression of abnormalities in nerve conduction studies (diabetic neuropathy [2]; recent clinical trials): prevent the progression
Cc1cccc(C)c1OCC(C)N (centres unmarked) [mexilitene]	only to be mildly effective		
vitamin B12			clinical progress [4]: insignificant
